Source: US20140107219A1, “LOCAL ANAESTHETIC” (VITA (EUROPE) LIMITED, priority 2011, published 2014)
Values joined by “and” are separate entries in the source; they are usually repeats but may differ in a detail not shown here. Identical values can stand only once. Like-named read-outs stand apart in the source and are kept apart here.

Key:
[1] = molecular target: T1, hNav1.6 sodium channels (SCN8A gene, expressed in CHO cells) (Homo sapiens, UniProt Q9UQD0); experiment: Automated patch clamp (PatchXpress 7000A), cloned hNav1.6 in CHO cells, tonic and phasic; type: cell-based; settings: for inhibition at 730 µg/mL / inhibition at 1460 µg/mL / inhibition at 2190 µg/mL / inhibition at 2920 µg/mL: CHO
T1 construct: expressed in transfected cells; host or cells: CHO cells
Description: In this example, the in vitro effects of 2-heptanone on the following ion channels were evaluated at room temperature using the PatchXpress 7000A (Molecular Devices), an automatic parallel patch clamp system:
(§1) 1. Cloned hNav1.2 sodium channels (SCN2A gene, expressed in CHO cells). 2. Cloned hNav1.6 sodium channels (SCN8A gene, expressed in CHO cells).
The effects of 2-heptanone were evaluated at 0.73, 1.46, 2.19, and 2.92 mg/ml with each concentration tested in two cells (n=2). The duration of exposure to each concentration of 2-heptanone was 5 minutes. Tables 2 to 5 show the individual results from each concentration followed by individual concentration-response curves. The positive controls (Table 6) confirm the sensitivity of the test systems to inhibition.
. Br. J. Pharmacol. 164, 719-730). […]

Acute LD50 = type: in vivo; settings: from acute LD50
biceps muscle = experiment: In vivo muscle CAP (mCAP, EMG integral) after intramuscular injection, biceps muscle; settings: 7.2 mg/kg intramuscular
gastrocnemius muscle = experiment: In vivo muscle CAP (mCAP, EMG integral) after intramuscular injection, gastrocnemius muscle; set-up: species or system rat
[2] = system: isolated sciatic nerve of the rat; experiment: Evoked compound action potential (CAP) of the isolated rat sciatic nerve in a three-chamber bath (ex vivo): inhibition and recovery after washout; settings: for IT0: 15 mM (1.7 mg/mL)
[3] = molecular target: T2, hNav1.2 sodium channels (SCN2A gene, expressed in CHO cells) (Homo sapiens, UniProt Q99250); experiment: Automated patch clamp (PatchXpress 7000A), cloned hNav1.2 in CHO cells, tonic and phasic; type: cell-based; settings: for inhibition at 730 µg/mL / inhibition at 1460 µg/mL / inhibition at 2190 µg/mL / inhibition at 2920 µg/mL: CHO
T2 construct: expressed in transfected cells; host or cells: CHO cells
Excerpt: as §1

[4] = in vivo; cited from earlier work
[5] = system: peripheral nervous system of the rat; settings: in-vivo; cited from earlier work

T2 sequence (Q99250 whole entry): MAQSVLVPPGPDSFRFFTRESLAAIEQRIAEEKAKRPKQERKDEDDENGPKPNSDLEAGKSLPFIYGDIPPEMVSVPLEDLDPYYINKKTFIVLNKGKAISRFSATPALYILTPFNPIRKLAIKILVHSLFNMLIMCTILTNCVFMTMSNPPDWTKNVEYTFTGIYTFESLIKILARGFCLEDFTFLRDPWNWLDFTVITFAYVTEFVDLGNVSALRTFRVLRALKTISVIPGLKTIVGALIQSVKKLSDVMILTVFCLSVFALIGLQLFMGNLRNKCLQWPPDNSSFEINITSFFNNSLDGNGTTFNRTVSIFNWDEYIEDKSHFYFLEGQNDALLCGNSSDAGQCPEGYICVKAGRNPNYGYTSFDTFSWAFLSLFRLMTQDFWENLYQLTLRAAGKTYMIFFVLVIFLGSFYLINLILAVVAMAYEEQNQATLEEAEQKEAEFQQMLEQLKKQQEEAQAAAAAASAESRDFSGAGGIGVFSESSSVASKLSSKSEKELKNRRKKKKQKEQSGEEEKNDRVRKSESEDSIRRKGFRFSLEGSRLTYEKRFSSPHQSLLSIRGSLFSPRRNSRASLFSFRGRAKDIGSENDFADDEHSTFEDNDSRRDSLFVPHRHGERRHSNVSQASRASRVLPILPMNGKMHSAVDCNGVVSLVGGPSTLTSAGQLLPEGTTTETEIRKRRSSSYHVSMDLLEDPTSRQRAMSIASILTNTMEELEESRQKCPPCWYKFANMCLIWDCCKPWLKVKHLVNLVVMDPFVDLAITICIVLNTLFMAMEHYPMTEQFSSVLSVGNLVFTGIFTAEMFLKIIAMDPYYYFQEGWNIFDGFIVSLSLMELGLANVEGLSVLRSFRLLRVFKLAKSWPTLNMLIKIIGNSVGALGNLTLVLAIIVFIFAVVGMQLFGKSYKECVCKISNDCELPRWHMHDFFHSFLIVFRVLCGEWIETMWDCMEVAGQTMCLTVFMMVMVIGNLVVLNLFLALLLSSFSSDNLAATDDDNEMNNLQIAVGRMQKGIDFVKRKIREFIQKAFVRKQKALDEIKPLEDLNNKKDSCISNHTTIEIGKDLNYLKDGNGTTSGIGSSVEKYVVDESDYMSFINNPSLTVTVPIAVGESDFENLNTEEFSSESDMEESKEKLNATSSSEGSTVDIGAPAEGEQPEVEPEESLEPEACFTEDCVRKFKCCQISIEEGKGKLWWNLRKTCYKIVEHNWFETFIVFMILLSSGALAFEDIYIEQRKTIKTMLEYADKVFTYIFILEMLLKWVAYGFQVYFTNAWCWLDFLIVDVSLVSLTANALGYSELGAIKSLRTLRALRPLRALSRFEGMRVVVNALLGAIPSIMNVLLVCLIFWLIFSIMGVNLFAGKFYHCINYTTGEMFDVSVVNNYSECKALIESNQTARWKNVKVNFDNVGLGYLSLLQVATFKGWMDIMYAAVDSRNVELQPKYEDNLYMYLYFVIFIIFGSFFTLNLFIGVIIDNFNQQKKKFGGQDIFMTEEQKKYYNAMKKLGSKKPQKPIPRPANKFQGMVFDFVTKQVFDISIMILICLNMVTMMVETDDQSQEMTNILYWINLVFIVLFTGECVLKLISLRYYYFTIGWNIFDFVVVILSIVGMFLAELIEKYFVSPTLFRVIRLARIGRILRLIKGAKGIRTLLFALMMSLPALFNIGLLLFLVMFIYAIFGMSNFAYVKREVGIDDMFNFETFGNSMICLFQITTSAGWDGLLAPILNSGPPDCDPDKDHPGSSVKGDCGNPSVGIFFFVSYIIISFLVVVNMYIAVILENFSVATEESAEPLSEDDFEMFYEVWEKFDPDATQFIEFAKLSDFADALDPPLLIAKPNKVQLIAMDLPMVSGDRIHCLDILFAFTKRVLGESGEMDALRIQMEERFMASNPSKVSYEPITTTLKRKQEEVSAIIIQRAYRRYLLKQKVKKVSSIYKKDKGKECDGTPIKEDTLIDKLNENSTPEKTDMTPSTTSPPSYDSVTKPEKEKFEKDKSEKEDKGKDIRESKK
T1 sequence (Q9UQD0 whole entry): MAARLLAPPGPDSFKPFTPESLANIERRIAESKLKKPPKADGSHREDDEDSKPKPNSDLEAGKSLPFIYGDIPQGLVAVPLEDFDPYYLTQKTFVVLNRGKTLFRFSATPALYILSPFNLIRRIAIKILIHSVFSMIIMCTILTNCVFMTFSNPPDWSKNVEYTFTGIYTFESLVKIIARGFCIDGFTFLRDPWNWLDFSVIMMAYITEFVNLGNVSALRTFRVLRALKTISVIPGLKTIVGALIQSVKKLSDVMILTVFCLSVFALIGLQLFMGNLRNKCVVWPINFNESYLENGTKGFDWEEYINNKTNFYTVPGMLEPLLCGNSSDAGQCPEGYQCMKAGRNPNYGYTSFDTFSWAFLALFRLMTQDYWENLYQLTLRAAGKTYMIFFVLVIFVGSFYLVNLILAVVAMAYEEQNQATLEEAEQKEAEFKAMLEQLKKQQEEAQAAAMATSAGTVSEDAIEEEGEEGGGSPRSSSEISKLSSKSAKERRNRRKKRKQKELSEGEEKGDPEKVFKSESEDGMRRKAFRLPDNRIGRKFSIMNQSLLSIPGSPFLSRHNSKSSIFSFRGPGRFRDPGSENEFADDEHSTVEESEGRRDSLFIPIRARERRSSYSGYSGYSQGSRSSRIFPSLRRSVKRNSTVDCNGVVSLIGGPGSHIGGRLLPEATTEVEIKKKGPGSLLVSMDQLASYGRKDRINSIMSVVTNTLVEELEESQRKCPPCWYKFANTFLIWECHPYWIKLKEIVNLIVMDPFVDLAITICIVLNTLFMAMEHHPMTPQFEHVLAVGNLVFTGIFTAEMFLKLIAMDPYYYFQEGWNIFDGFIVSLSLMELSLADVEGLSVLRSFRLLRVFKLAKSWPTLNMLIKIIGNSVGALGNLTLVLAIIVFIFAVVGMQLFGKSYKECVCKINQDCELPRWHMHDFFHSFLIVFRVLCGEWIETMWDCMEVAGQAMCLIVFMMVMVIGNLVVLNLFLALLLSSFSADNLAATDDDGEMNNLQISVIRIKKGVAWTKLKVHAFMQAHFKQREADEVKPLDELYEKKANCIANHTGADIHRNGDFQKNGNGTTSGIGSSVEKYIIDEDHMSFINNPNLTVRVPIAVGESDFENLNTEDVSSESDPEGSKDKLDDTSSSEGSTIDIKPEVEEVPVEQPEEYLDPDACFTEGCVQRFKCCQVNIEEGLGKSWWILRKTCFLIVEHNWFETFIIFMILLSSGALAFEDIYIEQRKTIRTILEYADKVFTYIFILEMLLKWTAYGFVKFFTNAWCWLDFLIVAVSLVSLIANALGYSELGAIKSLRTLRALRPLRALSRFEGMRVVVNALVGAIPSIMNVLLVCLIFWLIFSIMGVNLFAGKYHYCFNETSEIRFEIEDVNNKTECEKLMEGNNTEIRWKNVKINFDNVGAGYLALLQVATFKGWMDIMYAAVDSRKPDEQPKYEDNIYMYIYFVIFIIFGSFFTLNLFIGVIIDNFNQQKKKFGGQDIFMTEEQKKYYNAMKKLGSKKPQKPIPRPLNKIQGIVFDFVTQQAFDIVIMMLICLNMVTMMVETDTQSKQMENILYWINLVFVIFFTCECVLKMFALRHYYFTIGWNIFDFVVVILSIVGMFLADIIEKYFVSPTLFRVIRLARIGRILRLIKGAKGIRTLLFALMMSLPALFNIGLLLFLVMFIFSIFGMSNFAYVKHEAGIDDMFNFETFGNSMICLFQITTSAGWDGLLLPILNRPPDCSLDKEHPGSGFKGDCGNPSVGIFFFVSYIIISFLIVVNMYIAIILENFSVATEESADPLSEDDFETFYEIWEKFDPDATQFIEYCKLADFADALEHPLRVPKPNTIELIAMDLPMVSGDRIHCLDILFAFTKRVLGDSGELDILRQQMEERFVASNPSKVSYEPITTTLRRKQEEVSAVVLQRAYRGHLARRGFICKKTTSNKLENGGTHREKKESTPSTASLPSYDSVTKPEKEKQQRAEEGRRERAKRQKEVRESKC

## CCCCCC(C)=O [2-heptanone]
[1]
  times less active than lidocaine, hNav1.6 phasic: 11.7 times
  times less active than lidocaine, hNav1.6 tonic: 4.6 times
[1]; 0.73 mg/ml, single cells
  Individual Data Points (% Inhibition), Nav1.6 phasic: 81.1%
  Individual Data Points (% Inhibition), Nav1.6 tonic: 52.6%
[1]; 1.46 mg/ml, single cells
  Individual Data Points (% Inhibition), Nav1.6 phasic: 99.9%
  Individual Data Points (% Inhibition), Nav1.6 tonic: 70.4%
[1]; 2.19 mg/ml, single cells
  Individual Data Points (% Inhibition), Nav1.6 phasic: 101.0%
  Individual Data Points (% Inhibition), Nav1.6 tonic: 100.1%
[1]; 2.92 mg/ml, single cells
  Individual Data Points (% Inhibition), Nav1.6 phasic: 100.7%
  Individual Data Points (% Inhibition), Nav1.6 tonic: 99.9%
[1]; 0.73 mg/ml, single cells, read-out: Individual Data Points (% Inhibition), Nav1.6 phasic
  inhibition at 730 µg/mL: 94%
[1]; 0.73 mg/ml, single cells, read-out: Individual Data Points (% Inhibition), Nav1.6 tonic
  inhibition at 730 µg/mL: 40.9%
[1]; 0.73 mg/ml, read-out: Mean % Inhibition, Nav1.6 phasic
  inhibition at 730 µg/mL: 87.6%
[1]; 0.73 mg/ml, read-out: Mean % Nav1.6 Tonic Inhibition
  inhibition at 730 µg/mL: 46.8%
[1]; 1.46 mg/ml, single cells, read-out: Individual Data Points (% Inhibition), Nav1.6 phasic
  inhibition at 1460 µg/mL: 102%
[1]; 1.46 mg/ml, single cells, read-out: Individual Data Points (% Inhibition), Nav1.6 tonic
  inhibition at 1460 µg/mL: 70.8%
[1]; 1.46 mg/ml, read-out: Mean % Inhibition, Nav1.6 phasic
  inhibition at 1460 µg/mL: 101%
[1]; 1.46 mg/ml, read-out: Mean % Nav1.6 Tonic Inhibition
  inhibition at 1460 µg/mL: 70.6%
[1]; 2.19 mg/ml, single cells, read-out: Individual Data Points (% Inhibition), Nav1.6 phasic
  inhibition at 2190 µg/mL: 102%
[1]; 2.19 mg/ml, single cells, read-out: Individual Data Points (% Inhibition), Nav1.6 tonic
  inhibition at 2190 µg/mL: 96.5%
[1]; 2.19 mg/ml, read-out: Mean % Inhibition, Nav1.6 phasic
  inhibition at 2190 µg/mL: 101%
[1]; 2.19 mg/ml, read-out: Mean % Nav1.6 Tonic Inhibition
  inhibition at 2190 µg/mL: 98.3%
[1]; 2.92 mg/ml, single cells, read-out: Individual Data Points (% Inhibition), Nav1.6 phasic
  inhibition at 2920 µg/mL: 101%
[1]; 2.92 mg/ml, single cells, read-out: Individual Data Points (% Inhibition), Nav1.6 tonic
  inhibition at 2920 µg/mL: 96.1%
[1]; 2.92 mg/ml, read-out: Mean % Inhibition, Nav1.6 phasic
  inhibition at 2920 µg/mL: 101%
[1]; 2.92 mg/ml, read-out: Mean % Nav1.6 Tonic Inhibition
  inhibition at 2920 µg/mL: 98%
[1]; Example 7, n=2, read-out: Nav1.6 phasic IC50
  IC50: < 6.39 mM
[1]; Example 7, n=2, read-out: Nav1.6 tonic IC50 (converted)
  IC50: 7.06 mM and 7.07 mM
[1]; Example 18, mean ± SEM
  hNav1.6 IC50, phasic: 820 ± 30 µg/mL
[1]; Example 18, mean ± SEM, read-out: hNav1.6 IC50, tonic (converted)
  IC50: 11.7 mM
[1]; FIG. 41, mean±SE
  Hill coefficient, Nav1.6 phasic: 1.10±0.06
  Hill coefficient, Nav1.6 tonic: 1.35±0.12
Acute LD50
  times less toxic than lidocaine: 5.6 times
Biceps muscle
  IT50 of mCAPs: 9.13 ± 0.73 s and 9.13 s
Gastrocnemius muscle; 7.2 mg/kg intramuscular
  recovery of mCAP after 3 h: 65.4±7.78% and 61%
Gastrocnemius muscle; 7.2 mg/kg intramuscular, in Tween 80 + 0.9% NaCl
  IT50 of the integral of mCAPs: 25.78 s
Gastrocnemius muscle; 10.8 mg/kg intramuscular
  IT50 of the integral of mCAPs: 11.16 s
  recovery of mCAP, % of initial values after 3 h: no recovery
Gastrocnemius muscle; similar IT50 at 7.2 mg/kg vs 10.8 mg/kg lidocaine
  times more effective than lidocaine: 1.5 times
[2]; 1.41 mg/mL
  IT100 / IT0: 517.5 ± 25.62 s
[2]; 1.41 mg/mL, listed as 2-Heptanone
  IT100 / IT0: 517.5 ± 25.62 s
[2]; 2.28 mg/mL (20 mM)
  IT100 / IT0: 358.8 ± 18.07 s
[2]; 2.28 mg/mL (20 mM), listed as 2-Heptanone
  IT100 / IT0: 358.8 ± 18.07 s
[2]; 10 mg/mL
  IT50 (time to inhibit CAP amplitude to 50% of control): 22.3 ± 1.1 s
[2]; 10 mg/mL, within 70 seconds of treatment
  CAP decreased to (% of control): 24%
[2]; 10 mg/mL, listed as 2-Heptanone
  IT50 (time to inhibit CAP amplitude to 50% of control): 22.3 ± 1.1 s
[2]; stagnant saline, n=5
  IT0: 5 to 9 min
[2]; stirred saline, individual nerves
  IT0: 5 min and 10 min
[2]; after 1.41 mg/mL
  recovery of the CAP after washout, % of control: above 87.5%
[2]; estimated from time-response curves, GraphPad Prism 5
  IC50 (concentration required to inhibit the CAP to 50% of control): 469 ± 2 µg/mL
[2]; ex vivo, within the limits of 24 h
  neurotoxic effect on nerve fibres: no neurotoxic effect
[2]; whole nerve preparation
  fold slower than lidocaine: 1.54 fold
[3]
  times less active than lidocaine, hNav1.2 phasic: 12.8 times
  times less active than lidocaine, hNav1.2 tonic: 7 times
[3]; 0.73 mg/ml, single cells
  Individual Data Points (% Inhibition), Nav1.2 phasic: 44.6%
  Individual Data Points (% Inhibition), Nav1.2 tonic: 27. %
[3]; 1.46 mg/ml, single cells
  Individual Data Points (% Inhibition), Nav1.2 phasic: 64.7%
  Individual Data Points (% Inhibition), Nav1.2 tonic: 45.8%
[3]; 2.19 mg/ml, single cells
  Individual Data Points (% Inhibition), Nav1.2 phasic: 92.4%
  Individual Data Points (% Inhibition), Nav1.2 tonic: 73. %
[3]; 2.92 mg/ml, single cells
  Individual Data Points (% Inhibition), Nav1.2 phasic: 99.8%
  Individual Data Points (% Inhibition), Nav1.2 tonic: 89. %
[3]; 0.73 mg/ml, single cells, read-out: Individual Data Points (% Inhibition), Nav1.2 phasic
  inhibition at 730 µg/mL: 44.3%
[3]; 0.73 mg/ml, single cells, read-out: Individual Data Points (% Inhibition), Nav1.2 tonic
  inhibition at 730 µg/mL: 31.5%
[3]; 0.73 mg/ml, read-out: Mean % Nav1.2 Phasic Inhibition
  inhibition at 730 µg/mL: 44.4%
[3]; 0.73 mg/ml, read-out: Mean % Nav1.2 Tonic Inhibition
  inhibition at 730 µg/mL: 29.7%
[3]; 1.46 mg/ml, single cells, read-out: Individual Data Points (% Inhibition), Nav1.2 phasic
  inhibition at 1460 µg/mL: 67.9%
[3]; 1.46 mg/ml, single cells, read-out: Individual Data Points (% Inhibition), Nav1.2 tonic
  inhibition at 1460 µg/mL: 49.3%
[3]; 1.46 mg/ml, read-out: Mean % Nav1.2 Phasic Inhibition
  inhibition at 1460 µg/mL: 66.3%
[3]; 1.46 mg/ml, read-out: Mean % Nav1.2 Tonic Inhibition
  inhibition at 1460 µg/mL: 47.6%
[3]; 2.19 mg/ml, single cells, read-out: Individual Data Points (% Inhibition), Nav1.2 phasic
  inhibition at 2190 µg/mL: 87.6%
[3]; 2.19 mg/ml, single cells, read-out: Individual Data Points (% Inhibition), Nav1.2 tonic
  inhibition at 2190 µg/mL: 56.7%
[3]; 2.19 mg/ml, read-out: Mean % Nav1.2 Phasic Inhibition
  inhibition at 2190 µg/mL: 90%
[3]; 2.19 mg/ml, read-out: Mean % Nav1.2 Tonic Inhibition
  inhibition at 2190 µg/mL: 65.1%
[3]; 2.92 mg/ml, single cells, read-out: Individual Data Points (% Inhibition), Nav1.2 phasic
  inhibition at 2920 µg/mL: 98.2%
[3]; 2.92 mg/ml, single cells, read-out: Individual Data Points (% Inhibition), Nav1.2 tonic
  inhibition at 2920 µg/mL: 78.7%
[3]; 2.92 mg/ml, read-out: Mean % Nav1.2 Phasic Inhibition
  inhibition at 2920 µg/mL: 99%
[3]; 2.92 mg/ml, read-out: Mean % Nav1.2 Tonic Inhibition
  inhibition at 2920 µg/mL: 83.9%
[3]; Example 7, n=2, read-out: Nav1.2 phasic IC50 (converted)
  IC50: 7.57 mM and 7.58 mM
[3]; Example 7, n=2, read-out: Nav1.2 tonic IC50 (converted)
  IC50: 12.1 mM
[3]; Example 18, mean ± SEM, read-out: hNav1.2 IC50, phasic (converted)
  IC50: 11.2 mM
[3]; Example 18, mean ± SEM, read-out: hNav1.2 IC50, tonic (converted)
  IC50: 16.6 mM
[3]; FIG. 41, mean±SE
  Hill coefficient, Nav1.2 phasic: 1.24±0.17
  Hill coefficient, Nav1.2 tonic: 1.44±0.02
[4]
  acute LD50: 1760 mg/kg
[5]
  neurotoxic effects on the peripheral nervous system: no neurotoxic effects
